Values of other authors as cited in patent publication EP1677774B1, “CITICOLINE-BASED COMPOSITION IN COMBINATION WITH VITAMINS FOR THE PREVENTION AND TREATMENT OF EYE PATHOLOGIES” (Bausch & Lomb IOM S.p.A., priority 2003, dated 2005).

Legend:
[1] = tested on: glaucomatous patients; conditions: intramuscular administration

In the case of `C[N+](C)(C)CCOP(=O)(O)OP(=O)([O-])OC[C@H]1O[C@@H](n2ccc(N)nc2=O)[C@H](O)[C@@H]1O` [CDP-choline, cytidine-5'-diphosphocholine], the “metabolic fate after administration” value (intravenous or oral administration) is given as “immediately hydrolysed and converted into the two circulating metabolites cytidine and choline”, the “calculated bioavailability for oral administration” value (oral compared with intravenous administration) is given as “virtually the same as the one calculated for intravenous administration” and the “effect on the optic nerve (perimetric measures)” value ([1]; long-term clinical studies) is given as “positive effect on the damaged optic nerve”. The “retinal and supraretinal signal conduction” value ([1]; short-term clinical study) was “functional improvement”.
